Data as given in patent US20250270159A1, “1-(CYCLOBUTANEMETHYLIDENE)-2, 4, 5-TRIMETHOXYBENZENE COMPOUND AND PREPARATION METHOD AND USE THEREOF” (CHENGDU XINRUI TAIKANG TECHNOLOGY CO., LTD., priority 2023, published 2025).

Columns and labels:
[1] = test system: rat model of lithium-pilocarpine-induced epilepsy; assay: Rat model of lithium-pilocarpine-induced epilepsy (SE), highest seizure grade score; format: in vivo, Sprague Dawley (SD) rats; settings: 300 mg/kg oral gavage, 1 h after SE onset; acute phase; Racine 0-6
Description: (1) Experimental Animals: SPF Adult Male Sprague Dawley (SD) Rats, with a Weight of 200-250 g.
Methylscopolamine bromide, lithium chloride, and pilocarpine were weighed, and experimental drugs were dissolved to working concentrations (100 mg/mL of lithium chloride solution, 1 mg/mLof methylscopolamine bromide solution, and 20 mg/mL of pilocarpine solution) with 0.9% saline. Rats were injected intraperitoneally with lithium chloride (a dose of 127 mg/kg), and 18-20 h later, scopolamine methylbromide (a dose of 1 mg/kg) was injected intraperitoneally. […] Thereafter, an additional dose of 10 mg/kg pilocarpine was injected intraperitoneally every 30 min until the onset of a grade IV or higher status epilepticus (SE)-like seizure without significant intermittent intervals, with a maximum dose of 60 mg/kg.
Model inclusion criterion: experimental animals presenting continuous seizures of grade IV or higher for 1 h was judged as successful modeling.
The rats with successful modeling were randomly divided into three groups, namely a model group, a CTMB group, and a sodium valproate (VPA) group. […]
Referring to the grading scale of Racine scores, the seizure symptoms of each group of rats after the drug intervention were observed, and the seizure grades of each group of rats in the acute phase were recorded. […]

[2] = test system: Parkinson's disease (PD) mice, 6-OHDA method; assay: 6-OHDA Parkinson's disease mice, hanging experiment; format: in vivo, C57 mice; settings: Group L, levodopa: benserazide hydrochloride=4:1, 12 mg/kg ip, cut-off 60 s
Description: (§1) The mice were randomly divided into a sham operation group (group S, given a blank emulsion with a volume equal to that of the administered group), a model group (group M, given a blank emulsion with a volume equal to that of the administered group), a CTMB group (20 mg/kg, group D), and a levodopa group (levodopa: benserazide hydrochloride=4:1, 12 mg/kg, group L), each group included 10-12 mice, and all of them were administered intraperitoneally.
(§2) Preoperatively, mice were fasted for 12 h, and mice were anesthetized with 4% isoflurane induction and maintained with 1.5% isoflurane. The mice were subsequently immobilized on a brain stereotaxic apparatus. The bregma and lambda points were exposed by gently wiping the cranial surface with a cotton swab after cutting the scalp. The stereotaxic apparatus was adjusted to align the heights of the bregma and lambda points, thereby leveling the skull. The bregma point was designated as the origin, the coordinates where the injection site was located were located, and the drill was used to drill a small hole in the skull above the injection site.
(§3) 6-OHDA (12.5 μg/μL) was injected into the striatum region (AP+0.5 mm; ML+2.00 mm; DV-3.00 mm and-2.00 mm) of the mice, and 1 μL 6-OHDA was injected into each of the two points at a rate of 0.5 μL/min. The needle was left in place for 3 min after the injection was completed, and then the injection needle was lifted, and the scalp of the mice was sutured and disinfected. The sham operation group was injected with an equal volume of saline containing 0.02% ascorbic acid, and other operations were performed as above. After the procedure, the mice were placed in the cage at an appropriate temperature. After awakening from anesthesia, the mice were kept normally.
The hanging experiment: normal mice have climbing activity, which requires proper grip strength and motor coordination, so the hanging experiment may be used to examine motor dysfunction in mice. A metal rod with a diameter of 1.5 mm was placed horizontally on top of the box, and a distance from the metal rod to the bottom of the box was 30 cm. […] Measurement was performed twice, with an interval of 1 min or more between each test, and the results were averaged over the two times.
(§4) The motor function of the mice was comprehensively assessed using the rod-climbing experiment and the hanging experiment at 1, 2, 3, and 4 weeks after drug administration.

[3] = test system: neurons of substantia nigra region and striatum of PD mice; assay: HE staining of substantia nigra and striatum of PD mice; format: in vivo, C57 mice; settings: Group L, levodopa: benserazide hydrochloride=4:1, 12 mg/kg ip, 4 weeks; compared with model group; FIG. 5-7
Description: as §1
(§5) After completing the evaluation of motor function after 4 weeks of drug administration, the mice were deeply anesthetized, perfused with 20 mL of saline and 20 mL of 4% paraformaldehyde via the heart, and the brains were rapidly severed and extracted from the head, which were then preserved and fixed in 4% paraformaldehyde for 72 h after removal, and then embedded with paraffin to prepare the slices with a thickness of 4 μm for subsequent pathological and histological studies.
Hematoxylin-eosin (HE) staining may be used to observe changes in the pathological condition of brain tissue. […]

[4] = test system: Parkinson's disease (PD) mice, 6-OHDA method; assay: 6-OHDA Parkinson's disease mice, rod-climbing experiment; format: in vivo, C57 mice; settings: Group L, levodopa: benserazide hydrochloride=4:1, 12 mg/kg ip
Description: as §1, §2, §3
The rod-climbing experiment: the rod-climbing experiment was mainly used to test the limb movement ability of mice and to assess the symptoms of motor delay. This experiment evaluated the ability of mice to grasp and maneuver on a pole to descend to their home cage. A cork ball was fixed to an iron pole with a diameter of 1 cm and a length of 65 cm. The head of the mice was put down on the top of the pole, and the mice usually naturally descended down along the pole to return to their cage. The time for the mice to descend to the bottom was recorded. Results were averaged over 3 consecutive measurements.
as §4

[5] = test system: neurons in the substantia nigra region of the midbrain of PD mice; assay: Niehl's staining, number of neuronal Niehl's bodies in substantia nigra of PD mice; format: in vivo, C57 mice; settings: Group L, levodopa: benserazide hydrochloride=4:1, 12 mg/kg ip, after 4 weeks of administration
Description: as §1, §5
Niehl's staining was used to identify Niehl's bodies in neuronal cells.

[6] = test system: Tyrosine hydroxylase (TH) protein expression; assay: TH protein expression by immunohistochemistry in substantia nigra of PD mice; format: in vivo, C57 mice; settings: Group L, levodopa: benserazide hydrochloride=4:1, 12 mg/kg ip, after 4 weeks of administration
Description: as §1, §5
Tyrosine hydroxylase (TH) protein expression was detected by immunohistochemistry. […]

Compound | Seizure grade score (highest, SE model rats) [1] | Hanging time, Before administration ([2]; baseline 2 weeks after 6-OHDA) [s] | Hanging time, 1 week of administration [2] [s] | Hanging time, 2 weeks of administration [2] [s] | Hanging time, 3 weeks of administration [2] [s] | Hanging time, 4 weeks of administration [2] [s] | degree of pathological damage to the substantia nigra region and striatum [3] | Rod-climbing time, 1 week of administration [4] | Rod-climbing time, 2 weeks of administration [4] [s] | Rod-climbing time, 3 weeks of administration [4] [s] | Rod-climbing time, 4 weeks of administration [4] [s] | Rod-climbing time, Before administration ([4]; baseline 2 weeks after 6-OHDA) [s] | Number of Niehl's bodies [5] | TH-positive neurons (a percentage of TH-positive neurons to uninjured side, %) [6] [%]
CCCC(CCC)C(=O)[O-].[Na+] [VPA, sodium valproate, reference compound] | 5.00 ± 0.00 |  |  |  |  |  |  |  |  |  |  |  |  | 
N[C@@H](Cc1ccc(O)c(O)c1)C(=O)O [levodopa, Levodopa, reference compound] |  | 43.7 ± 19.5 | 54.4 ± 8.0 | 47.0 ± 16.2 | 48.2 ± 18.1 | 50.3 ± 12.9 | reduced | 6.39 ± 1.18 ^ s | 5.79 ± 0.49 | 5.34 ± 0.84 | 4.93 ± 0.59 | 9.63 ± 2.53 | 57.8 ± 6.5 | 18.8 ± 7.6
